Values of other authors, collected in US20090252806A1, “NANOPARTICULATE TACROLIMUS FORMULATIONS” (Elan Pharma International Ltd., priority 2004, published 2009).
Like-named read-outs stand apart in the source and are kept apart here.

Key:
[1] = oral
[2] = for reduction of mean AUC relative to the fasted condition / reduction of mean Cmax relative to the fasted condition: healthy volunteers (N=16)
[3] = U.S. study; average (range)
[4] = 18 fasted healthy volunteers; single oral dose of 3 mg, 7 mg, and 10 mg
[5] = 15 minutes after a high fat (400 kcal, 34% fat) breakfast, 11 liver transplant patients
[6] = administered 1.5 hours following the meal
[7] = given immediately following the meal

C=CC[C@@H]1/C=C(\C)C[C@H](C)C[C@H](OC)[C@H]2O[C@@](O)(C(=O)C(=O)N3CCCC[C@H]3C(=O)O[C@H](/C(C)=C/[C@@H]3CC[C@@H](O)[C@H](OC)C3)[C@H](C)[C@@H](O)CC1=O)[C@H](C)C[C@@H]2OC [tacrolimus, Tacrolimus]
absolute bioavailability ([1]; adult kidney transplant patients (N=26)): 17±10%
absolute bioavailability ([1]; adult liver transplant patients (N=17)): 22±6%
decreased AUC as compared to a fasted state [2, 5]: 27±18%
decreased Cmax as compared to a fasted state [2, 5]: 50±19%
reduction of mean AUC relative to the fasted condition [2, 6]: 39%
reduction of mean Cmax relative to the fasted condition [2, 6]: 63%
reduction of mean AUC relative to the fasted condition [2, 7]: 39%
reduction of mean Cmax relative to the fasted condition [2, 7]: 71%
lengthening of Tmax ([2]; high-fat meal (848 kcal, 46% fat), 15 healthy volunteers): 5 fold
ratio of whole blood concentration to plasma concentration [3]: 35 (range 12 to 67)
solubility (in chloroform): very soluble
solubility (in ethanol): freely soluble
solubility (in methanol): very soluble
solubility (in water): practically insoluble
increase of Cmax and AUC with dose [4]: dose-proportional
